# Counter-ions that a name gives are not always drawn.
# Key:
# [1] = Water content after storage on the open air; assay type: physicochemical; conditions: after one month storage on the open air at laboratory temperature; 1.7% of water when prepared
# Protocol: 10 g of crystalline form of risedronate pentahydrate (according to WO 2004/037252) was dried at 110° C. for 20 hours. 8.2 g of the semi-crystalline form of risedronate sodium was obtained, which was characterized with X-ray powder diffraction (FIG. 9), ^13C and ^31P Cp MAS NMR spectra (FIGS. 7 and 8) and IR spectra (FIG. 6). Thus prepared semi-crystalline risedronate contained 1.7% of water. After one month storage on the open air at laboratory temperature the content of water increased to 3%.
# [2] = assay type: physicochemical; conditions: for time until a transparent solution was formed: 0.796 mmol in 100 ml stirred aqueous hydrochloric acid, pH 1.1, 40° C.
# Protocol: Dissolution of Sodium Risedronate in Diluted Hydrochloric Acid
# a) 0.273 g (0.796 mmol) of sodium risedronate pentahemihydrate (crystalline form A) according to WO 01/56983, having the water content 12.5%, was introduced into 100 ml of stirred aqueous solution of hydrochloric acid at pH 1.1 and temperature of 40° C. Within 30 seconds a transparent solution was formed.
# b) 0.250 g (0,796 mmol) of semi-crystalline sodium risedronate according to Example 2 above, having the water content 3%, was introduced into 100 ml of stirred aqueous solution of hydrochloric acid at pH 1.1 and temperature of 40° C. Within less than 30 seconds a quite transparent solution was formed.
# [3] = physchem; conditions: 22 °C, water, thermodynamic from solid
# [4] = 0.200 g suspended in 2 ml water at 22° C., water added dropwise at 0.2 ml/min until transparent solution
Compound,content of water after storage [1] [%],time until a transparent solution was formed [2],"precipitation on further stirring under constant conditions ([2]; aqueous hydrochloric acid pH 1.1, 40° C., stirred for further 15 mins)",solubility [3] [mM],total consumption of water for dissolution of the sample [4] [mL],time after formation of the transparent solution until a white suspension of poorly soluble risedronic acid started to precipitate ([2]; pH 1.1) [s]
"O=P(O)(O)C(O)(Cc1cccnc1)P(=O)(O)O [Example 2, monosodium salt of 3-pyridyl-1-hydroxyethylidene-1,1-bisphosphonic acid]",3,less than 30 seconds,without any observable precipitation,255,2.5,
"O.O.O.O.O.O=P([O-])(O)C(O)(Cc1cccnc1)P(=O)(O)O.O=P([O-])(O)C(O)(Cc1cccnc1)P(=O)(O)O.[Na+].[Na+] [sodium risedronate pentahemihydrate, reference compound]",,≤ 30 s,,,3.5,≤ 20

# From patent US7618953B2, “Amorphous forms of risedronate monosodium” (Zentiva, a.s., priority 2004, dated 2009)
